Assays:
[1] = test system: rice blast (Pyricularia oryzae); assay type: in vivo; conditions: potted rice (variety Karakaze), spraying liquid 300 ppm after spore inoculation, observed 7 days after inoculation, levels 0 to 3
[2] = test system: gray mold (Botrytis cinerea); experiment: Tomato gray mold control test (preventive effects); assay type: in vivo; conditions: potted tomato (giant Fukuju variety), spraying liquid 300 ppm before spore inoculation, investigated 2 days after inoculation, levels 0 to 3
Description: Bulk drug was dissolved in a mixed solution of dimethylsulfoxide and methanol (volume ratio: 7/3), and spraying liquids containing 300 ppm of compounds of the present invention were uniformly sprayed onto potted test plants (tomato: giant Fukuju variety) in the second to third leaf stage. […], a suspension of pathogen spores were inoculated by spraying onto the pots in an inoculation room at a room temperature of 20 to 23° C. to promote the onset of disease. The degree of disease onset was investigated 2 days after inoculation. The test was carried out in duplicate.
Furthermore, the degree of disease onset was evaluated to one of four levels from 0 to 3 according to the criteria below by macroscopically observing the degree of disease onset of the test plants.
1: Degree of disease onset less than 40% of the untreated area
2: Degree of disease onset 40% to less than 80% of the untreated area
3: Degree of disease onset 80% or more

## CC1(C)N=C(c2cnc3ccccc3c2)c2ccccc2C1=O
other
  melting point: 137 °C

## CC1(C)Cc2c(F)cccc2C(c2cnc3ccccc3c2)N1 (centres unmarked) [Example 110, 3-(5-fluoro-3,3-dimethyl-1,2,3,4-tetrahydroisoquinoline-1-yl)quinoline]
[1]
  degree of disease onset: 0
[2]
  degree of disease onset: 0
other
  melting point: 142 to 144 °C

## CC1(C)Cc2c(F)cccc2C(C)(c2cnc3ccccc3c2)N1 (centres unmarked)
other
  melting point: 148 to 150 °C

## CCOC1(C)c2c(F)cccc2C(c2cnc3ccccc3c2)=NC1(C)C (centres unmarked) [Example 184, 3-(4-ethoxy-5-fluoro-3,3,4-trimethyl-3,4-dihydroisoquinolin-1-yl)quinoline]
[1]
  degree of disease onset: 0
other
  melting point: 118 to 119 °C

## CC1(C)NC(c2cnc3ccccc3c2)c2cccc(F)c2C1(C)C (centres unmarked) [Example 125, 3-(5-fluoro-3,3,4,4-tetramethyl-1,2,3,4-tetrahydroisoquinoline-1-yl)quinoline]
[1]
  degree of disease onset: 0
other
  melting point: 179 to 181 °C

## CC1(C)Cc2c(cccc2-c2cnco2)C(c2cnc3ccccc3c2)=N1
other
  melting point: 175 to 179 °C

## CC1(C)NC(c2cnc3ccccc3c2)c2cccc(F)c2C1=O (centres unmarked)
other
  melting point: 228 to 229 °C

## CCC1(OC)c2c(F)cccc2C(c2cnc3ccccc3c2)=NC1(C)C (centres unmarked) [Example 185, 3-(4-ethyl-5-fluoro-4-methoxy-3,3-dimethyl-3,4-dihydroisoquinolin-1-yl)quinoline]
[1]
  degree of disease onset: 0
other
  melting point: 145 to 147 °C

## CN1C(c2cnc3ccccc3c2)c2ccccc2CC1(C)C (centres unmarked)
other
  melting point: 116 to 118 °C

## CC1(C)Cc2c(C(N)=O)cccc2C(c2cnc3ccccc3c2)=N1
other
  melting point: 236 to 240 °C

## CC1(C)Cc2ccccc2C(c2cnc3ccccc3c2)N1 (centres unmarked) [Example 4, 3-(3,3-dimethyl-1,2,3,4-tetrahydroisoquinolin-1-yl)quinoline]
[1]
  degree of disease onset: 0
other
  melting point: 117 to 122 °C

## CC1(C)N=C(c2cnc3ccccc3c2)c2cc(Br)ccc2C1(F)F
other
  melting point: 123 to 125 °C

## CC1(C)Cc2c(Cl)cccc2C(C)(c2cnc3ccccc3c2)N1 (centres unmarked)
other
  melting point: 142 to 144 °C

## CC1(C)[N+]([O-])=C(c2cnc3ccccc3c2)c2ccccc2C1(F)F [Example 218, 3-(4,4-difluoro-3,3-dimethyl-2-oxide-3,4-dihydroisoquinolin-1-yl)quinoline]
[1]
  degree of disease onset: 0
[2]
  degree of disease onset: 0

## CC1(C)Cc2c(Cl)cccc2C(c2cnc3ccccc3c2)N1 (centres unmarked) [Example 112, 3-(5-chloro-3,3-dimethyl-1,2,3,4-tetrahydroisoquinoline-1-yl)quinoline]
[1]
  degree of disease onset: 0
[2]
  degree of disease onset: 0
other
  melting point: 129 to 131 °C

## CC1(C)N=C(c2cnc3ccccc3c2)c2cccc(F)c2C1(C)C [Example 114, 3-(5-fluoro-3,3,4,4-tetramethyl-3,4-dihydroisoquinolin-1-yl)quinoline]
[1]
  degree of disease onset: 0
[2]
  degree of disease onset: 0

## CC1(C)N=C(c2cnc3ccccc3c2)c2cccc(F)c2C1O (centres unmarked)
other
  melting point: 225 to 226 °C

## CC1c2c(F)cccc2C(c2cnc3ccccc3c2)NC1(C)C (centres unmarked) [Example 124, 3-(5-fluoro-3,3,4-trimethyl-1,2,3,4-tetrahydroisoquinoline-1-yl)quinoline]
[1]
  degree of disease onset: 0
other
  melting point: 133 to 134 °C

## CC1(c2ccccc2)Cc2ccccc2C(c2cnc3ccccc3c2)=N1 (centres unmarked) [Example 71, 3-(3-methyl-3-phenyl-3,4-dihydroisoquinolin-1-yl)quinoline]
[1]
  degree of disease onset: 0
[2]
  degree of disease onset: 0

## CC1(C)N2OC2(c2cnc3ccccc3c2)c2cccc(F)c2C1(F)F (centres unmarked) [Example 203, 4,4,5-trifluoro-3,3-dimethyl-8b-quinolin-3-yl-4,8b-dihydro-3H-oxazileno[3,2-a]isoquinoline]
[1]
  degree of disease onset: 0
[2]
  degree of disease onset: 0

## CC1(C(F)(F)F)Cc2ccccc2C(c2cnc3ccccc3c2)=N1 (centres unmarked) [Example 68, 3-(3-trifluoromethyl-3-methyl-3,4-dihydroisoquinolin-1-yl)quinoline]
[1]
  degree of disease onset: 0
[2]
  degree of disease onset: 0

From patent publication US7632783B2 (priority 2004, dated 2009)
